{"source": "ChEMBL document CHEMBL5465560", "about": "“Selectivity Literature for EUbOPEN Chemogenomic Library” (2024)", "key": {"[1]": {"target": "Histone-lysine N-methyltransferase, H3 lysine-79 specific (Homo sapiens, UniProt Q8TEK3)", "sequence (Q8TEK3 whole entry, looked up)": "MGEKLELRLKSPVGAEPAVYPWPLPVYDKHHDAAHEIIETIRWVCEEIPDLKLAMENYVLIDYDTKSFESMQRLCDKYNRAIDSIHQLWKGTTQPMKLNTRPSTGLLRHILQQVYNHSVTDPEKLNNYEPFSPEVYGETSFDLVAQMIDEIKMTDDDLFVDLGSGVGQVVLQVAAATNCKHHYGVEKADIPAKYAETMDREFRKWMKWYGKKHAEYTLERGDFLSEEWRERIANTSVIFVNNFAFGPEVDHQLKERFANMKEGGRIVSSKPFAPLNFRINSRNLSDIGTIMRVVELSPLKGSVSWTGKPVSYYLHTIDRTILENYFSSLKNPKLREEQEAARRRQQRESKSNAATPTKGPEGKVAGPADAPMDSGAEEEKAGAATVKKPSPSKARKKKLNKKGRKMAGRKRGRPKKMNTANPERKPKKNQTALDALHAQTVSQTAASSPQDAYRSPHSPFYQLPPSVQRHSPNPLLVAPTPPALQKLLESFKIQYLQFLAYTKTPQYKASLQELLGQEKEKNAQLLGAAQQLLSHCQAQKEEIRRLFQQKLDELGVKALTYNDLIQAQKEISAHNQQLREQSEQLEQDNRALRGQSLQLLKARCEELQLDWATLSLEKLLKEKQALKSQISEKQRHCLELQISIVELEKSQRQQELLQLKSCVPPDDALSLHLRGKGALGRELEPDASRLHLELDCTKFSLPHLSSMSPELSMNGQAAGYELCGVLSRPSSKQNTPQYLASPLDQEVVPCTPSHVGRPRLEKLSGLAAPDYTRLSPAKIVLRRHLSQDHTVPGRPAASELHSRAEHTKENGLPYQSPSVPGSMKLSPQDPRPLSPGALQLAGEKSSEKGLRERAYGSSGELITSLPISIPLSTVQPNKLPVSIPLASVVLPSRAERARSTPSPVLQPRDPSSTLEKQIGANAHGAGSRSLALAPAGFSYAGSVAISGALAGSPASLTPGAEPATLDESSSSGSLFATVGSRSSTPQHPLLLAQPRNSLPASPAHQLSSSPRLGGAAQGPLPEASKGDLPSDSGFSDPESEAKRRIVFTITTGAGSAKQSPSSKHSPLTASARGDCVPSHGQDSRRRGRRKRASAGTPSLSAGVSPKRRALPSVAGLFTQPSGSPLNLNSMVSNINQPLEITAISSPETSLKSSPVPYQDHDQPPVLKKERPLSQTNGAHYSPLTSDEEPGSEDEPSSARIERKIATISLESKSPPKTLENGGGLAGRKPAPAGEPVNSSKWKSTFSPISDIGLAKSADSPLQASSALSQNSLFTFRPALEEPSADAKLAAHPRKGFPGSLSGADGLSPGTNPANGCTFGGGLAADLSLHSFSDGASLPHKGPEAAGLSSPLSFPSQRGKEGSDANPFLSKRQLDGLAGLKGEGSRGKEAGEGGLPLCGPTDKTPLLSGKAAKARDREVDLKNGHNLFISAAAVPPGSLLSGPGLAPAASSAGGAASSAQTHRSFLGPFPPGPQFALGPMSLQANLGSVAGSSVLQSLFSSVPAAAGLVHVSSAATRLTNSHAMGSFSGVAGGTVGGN", "test": "Selectivity interaction (Methyltransferase screen (radiometric assays, panel of 8 PRMTs, 21 protein lysine methyltransferases, 3 DNA methyltransferases, and one RNA methyltransferase)) EUB0000271b DOT1L"}, "Aurora kinase A": {"target": "Aurora kinase A (Homo sapiens, UniProt O14965)", "sequence (O14965 whole entry)": "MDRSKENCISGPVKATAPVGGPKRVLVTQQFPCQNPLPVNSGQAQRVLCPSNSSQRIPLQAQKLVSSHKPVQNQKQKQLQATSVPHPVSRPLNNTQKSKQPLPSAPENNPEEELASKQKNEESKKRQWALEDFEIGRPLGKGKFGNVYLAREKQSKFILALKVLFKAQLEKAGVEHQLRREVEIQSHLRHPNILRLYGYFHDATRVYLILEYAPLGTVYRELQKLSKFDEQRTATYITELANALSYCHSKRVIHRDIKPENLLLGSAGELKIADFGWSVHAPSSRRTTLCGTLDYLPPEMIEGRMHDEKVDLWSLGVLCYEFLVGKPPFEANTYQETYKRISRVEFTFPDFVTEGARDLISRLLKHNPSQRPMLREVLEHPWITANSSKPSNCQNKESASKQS", "test": "Selectivity interaction (Radiometric kinase assay (using 10 uM ATP)) EUB0000601a STK6"}, "[2]": {"target": "Macrophage colony-stimulating factor 1 receptor (Homo sapiens) (UniProt P07333)", "test": "Selectivity interaction (Ambit KINOMEscan and KiNATiv profiling in Jurkat cells) EUB0000090b CSF1R", "type": "cell-based", "conditions": "at 1 µM"}, "[3]": {"target": "T1, Serine/threonine-protein kinase 16 (Homo sapiens, UniProt O75716)", "T1 sequence (O75716 whole entry)": "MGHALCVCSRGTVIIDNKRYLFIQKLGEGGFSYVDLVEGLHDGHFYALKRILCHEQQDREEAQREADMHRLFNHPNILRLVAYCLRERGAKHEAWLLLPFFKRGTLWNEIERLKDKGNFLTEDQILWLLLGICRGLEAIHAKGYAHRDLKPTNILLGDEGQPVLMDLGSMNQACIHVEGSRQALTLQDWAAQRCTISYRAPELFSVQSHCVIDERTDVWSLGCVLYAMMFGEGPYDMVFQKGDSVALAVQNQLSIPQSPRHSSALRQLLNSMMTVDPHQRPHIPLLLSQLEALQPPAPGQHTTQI", "test": "Selectivity interaction (KinomeScan (DiscoverX)) EUB0001079a STK16", "conditions": "at 1 µM"}, "[4]": {"target": "Serine/threonine-protein kinase Nek7 (Homo sapiens) (UniProt Q8TDX7)", "sequence (Q8TDX7 whole entry, looked up)": "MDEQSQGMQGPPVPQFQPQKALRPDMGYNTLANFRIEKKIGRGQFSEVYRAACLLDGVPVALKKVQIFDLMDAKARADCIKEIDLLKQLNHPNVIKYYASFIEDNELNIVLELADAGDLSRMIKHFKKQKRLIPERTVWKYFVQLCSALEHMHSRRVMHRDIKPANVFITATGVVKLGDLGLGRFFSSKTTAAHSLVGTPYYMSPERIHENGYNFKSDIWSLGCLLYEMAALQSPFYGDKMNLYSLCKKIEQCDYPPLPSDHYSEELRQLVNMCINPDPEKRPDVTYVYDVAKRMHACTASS", "test": "Selectivity interaction (SelectScreen profiling (Invitrogen)) EUB0000607a NEK7", "conditions": "at 2 µM"}, "[5]": {"target": "Interleukin-1 receptor-associated kinase 1 (Homo sapiens) (UniProt P51617)", "test": "Selectivity interaction (ActivX KiNativ screen (ex vivo kinase selectivity in human PBMCs)) EUB0001619a IRAK1", "type": "cell-based", "conditions": "PBMC, at 1 µM"}, "[6]": {"target": "Serine/threonine-protein kinase Chk2 (Homo sapiens) (UniProt O96017)", "sequence (O96017 whole entry)": "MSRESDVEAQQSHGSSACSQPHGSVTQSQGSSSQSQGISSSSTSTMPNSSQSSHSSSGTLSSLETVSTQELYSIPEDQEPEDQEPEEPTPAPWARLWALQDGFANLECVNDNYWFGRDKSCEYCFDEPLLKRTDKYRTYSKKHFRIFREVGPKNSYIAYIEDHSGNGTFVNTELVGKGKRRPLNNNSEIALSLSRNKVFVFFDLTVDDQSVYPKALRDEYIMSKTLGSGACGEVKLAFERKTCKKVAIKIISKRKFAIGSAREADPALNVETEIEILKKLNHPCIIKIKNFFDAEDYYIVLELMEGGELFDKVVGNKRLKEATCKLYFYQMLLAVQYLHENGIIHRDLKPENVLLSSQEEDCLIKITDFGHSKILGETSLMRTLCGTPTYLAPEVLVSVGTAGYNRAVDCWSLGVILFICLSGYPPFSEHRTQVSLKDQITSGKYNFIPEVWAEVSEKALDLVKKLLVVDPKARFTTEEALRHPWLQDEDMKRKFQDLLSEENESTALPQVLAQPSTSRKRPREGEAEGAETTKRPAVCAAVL", "test": "Selectivity interaction (ActivX KiNativ screen (ex vivo kinase selectivity in human PBMCs)) EUB0001619a CHEK2", "type": "cell-based", "conditions": "PBMC, at 1 µM"}, "[7]": {"target": "Protein-tyrosine kinase 2-beta (Homo sapiens) (UniProt Q14289)", "sequence (Q14289 whole entry, looked up)": "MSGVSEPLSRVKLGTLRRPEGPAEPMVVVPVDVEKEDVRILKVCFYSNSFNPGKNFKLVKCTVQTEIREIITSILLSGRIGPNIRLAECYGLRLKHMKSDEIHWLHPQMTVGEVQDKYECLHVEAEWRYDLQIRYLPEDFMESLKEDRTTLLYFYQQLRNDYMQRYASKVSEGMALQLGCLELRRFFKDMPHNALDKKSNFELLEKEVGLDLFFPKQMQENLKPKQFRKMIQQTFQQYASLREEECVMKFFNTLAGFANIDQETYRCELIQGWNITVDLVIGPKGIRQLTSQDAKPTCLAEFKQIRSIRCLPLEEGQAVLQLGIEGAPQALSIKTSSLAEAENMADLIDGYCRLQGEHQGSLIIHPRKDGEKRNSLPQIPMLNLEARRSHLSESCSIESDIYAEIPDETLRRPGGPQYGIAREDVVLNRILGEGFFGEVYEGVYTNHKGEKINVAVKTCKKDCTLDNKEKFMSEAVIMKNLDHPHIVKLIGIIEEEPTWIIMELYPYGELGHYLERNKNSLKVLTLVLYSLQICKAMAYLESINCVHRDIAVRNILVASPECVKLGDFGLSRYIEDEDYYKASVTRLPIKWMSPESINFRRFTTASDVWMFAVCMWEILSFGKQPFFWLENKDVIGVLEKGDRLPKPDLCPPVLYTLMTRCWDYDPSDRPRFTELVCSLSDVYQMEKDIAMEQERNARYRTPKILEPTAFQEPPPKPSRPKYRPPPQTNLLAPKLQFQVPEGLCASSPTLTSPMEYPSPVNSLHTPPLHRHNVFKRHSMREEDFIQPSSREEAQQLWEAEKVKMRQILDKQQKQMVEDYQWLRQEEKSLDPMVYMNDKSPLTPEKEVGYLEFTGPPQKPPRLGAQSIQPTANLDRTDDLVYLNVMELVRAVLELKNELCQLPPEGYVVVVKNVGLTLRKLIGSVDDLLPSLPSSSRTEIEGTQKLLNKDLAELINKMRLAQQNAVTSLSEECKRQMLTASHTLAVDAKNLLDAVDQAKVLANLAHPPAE", "test": "Selectivity interaction (KinomeScan (DiscoverX)) EUB0000045b PTK2B"}, "[8]": {"target": "Proto-oncogene tyrosine-protein kinase Src (Homo sapiens, UniProt P12931)", "sequence (P12931 2-536 limits assumed)": "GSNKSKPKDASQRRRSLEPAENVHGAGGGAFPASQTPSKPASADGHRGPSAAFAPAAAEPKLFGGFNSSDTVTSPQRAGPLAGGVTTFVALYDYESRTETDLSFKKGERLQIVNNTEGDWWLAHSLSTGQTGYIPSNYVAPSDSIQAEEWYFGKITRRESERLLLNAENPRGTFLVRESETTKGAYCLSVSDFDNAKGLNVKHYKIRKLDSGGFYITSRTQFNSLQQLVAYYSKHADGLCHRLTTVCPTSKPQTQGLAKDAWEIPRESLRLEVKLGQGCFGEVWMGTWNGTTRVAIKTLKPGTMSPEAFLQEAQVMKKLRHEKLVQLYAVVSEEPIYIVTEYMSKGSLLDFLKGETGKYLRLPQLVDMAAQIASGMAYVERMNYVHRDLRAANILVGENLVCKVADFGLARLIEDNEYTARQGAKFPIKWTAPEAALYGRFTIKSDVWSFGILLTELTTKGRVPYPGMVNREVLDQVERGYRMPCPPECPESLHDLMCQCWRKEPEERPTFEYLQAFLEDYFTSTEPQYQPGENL", "test": "Selectivity interaction (KinomeScan (DiscoverX)) EUB0000045b SRC"}, "[9]": {"target": "T1, Serine/threonine-protein kinase 16", "test": "Selectivity interaction (Kinase panel (Invitrogen)) EUB0000639a STK16", "conditions": "at 200 nM"}, "[10]": {"target": "T2, Kinase suppressor of Ras 1 (Homo sapiens) (UniProt Q8IVT5)", "T2 sequence (whole entry)": "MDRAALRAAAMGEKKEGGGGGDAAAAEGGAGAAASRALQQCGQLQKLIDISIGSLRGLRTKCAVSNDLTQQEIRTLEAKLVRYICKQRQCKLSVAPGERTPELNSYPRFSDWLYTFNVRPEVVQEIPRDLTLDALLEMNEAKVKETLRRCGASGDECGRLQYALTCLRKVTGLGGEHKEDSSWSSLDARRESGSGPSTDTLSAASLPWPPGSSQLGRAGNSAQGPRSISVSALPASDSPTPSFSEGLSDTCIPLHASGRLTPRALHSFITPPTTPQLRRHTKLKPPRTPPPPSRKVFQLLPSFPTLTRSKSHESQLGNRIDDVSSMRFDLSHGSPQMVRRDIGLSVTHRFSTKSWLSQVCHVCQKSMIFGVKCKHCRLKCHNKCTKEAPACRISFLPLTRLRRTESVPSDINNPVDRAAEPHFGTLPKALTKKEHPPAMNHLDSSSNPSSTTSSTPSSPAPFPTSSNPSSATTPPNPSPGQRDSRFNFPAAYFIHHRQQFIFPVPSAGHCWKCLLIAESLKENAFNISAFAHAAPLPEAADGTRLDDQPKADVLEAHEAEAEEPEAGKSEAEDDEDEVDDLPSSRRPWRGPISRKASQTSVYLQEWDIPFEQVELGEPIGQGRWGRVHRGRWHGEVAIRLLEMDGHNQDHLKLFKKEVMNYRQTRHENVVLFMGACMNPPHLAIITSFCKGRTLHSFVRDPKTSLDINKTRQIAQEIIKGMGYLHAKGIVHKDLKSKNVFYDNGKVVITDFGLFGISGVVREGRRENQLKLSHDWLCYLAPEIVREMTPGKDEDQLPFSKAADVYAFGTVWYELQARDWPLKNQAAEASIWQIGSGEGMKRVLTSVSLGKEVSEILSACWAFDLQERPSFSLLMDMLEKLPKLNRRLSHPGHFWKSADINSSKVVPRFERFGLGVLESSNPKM", "test": "Selectivity interaction (ActivX KiNativ screen (kinase selectivity in THP-1 cell lysates)) EUB0000639a KSR1", "type": "subcellular", "conditions": "lysate"}, "Aurora kinase B": {"target": "Aurora kinase B (Homo sapiens, UniProt Q96GD4)", "sequence (Q96GD4 whole entry)": "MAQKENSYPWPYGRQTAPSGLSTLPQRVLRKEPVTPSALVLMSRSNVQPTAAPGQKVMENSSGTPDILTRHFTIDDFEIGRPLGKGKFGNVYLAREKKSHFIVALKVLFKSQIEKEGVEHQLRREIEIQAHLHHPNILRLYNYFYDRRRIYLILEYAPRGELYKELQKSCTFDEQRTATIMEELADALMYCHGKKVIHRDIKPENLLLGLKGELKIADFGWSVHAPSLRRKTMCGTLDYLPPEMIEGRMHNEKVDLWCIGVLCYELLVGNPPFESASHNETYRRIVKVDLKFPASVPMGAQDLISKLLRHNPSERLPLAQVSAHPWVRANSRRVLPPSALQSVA", "test": "Selectivity interaction (ActivX KiNativ screen (kinase selectivity in THP-1 cell lysates)) EUB0000639a AURKB", "type": "subcellular", "conditions": "lysate, at 0.2 µM"}, "[11]": {"target": "T3, Tyrosine-protein kinase receptor TYRO3 (Homo sapiens) (UniProt Q06418)", "T3 sequence (whole entry)": "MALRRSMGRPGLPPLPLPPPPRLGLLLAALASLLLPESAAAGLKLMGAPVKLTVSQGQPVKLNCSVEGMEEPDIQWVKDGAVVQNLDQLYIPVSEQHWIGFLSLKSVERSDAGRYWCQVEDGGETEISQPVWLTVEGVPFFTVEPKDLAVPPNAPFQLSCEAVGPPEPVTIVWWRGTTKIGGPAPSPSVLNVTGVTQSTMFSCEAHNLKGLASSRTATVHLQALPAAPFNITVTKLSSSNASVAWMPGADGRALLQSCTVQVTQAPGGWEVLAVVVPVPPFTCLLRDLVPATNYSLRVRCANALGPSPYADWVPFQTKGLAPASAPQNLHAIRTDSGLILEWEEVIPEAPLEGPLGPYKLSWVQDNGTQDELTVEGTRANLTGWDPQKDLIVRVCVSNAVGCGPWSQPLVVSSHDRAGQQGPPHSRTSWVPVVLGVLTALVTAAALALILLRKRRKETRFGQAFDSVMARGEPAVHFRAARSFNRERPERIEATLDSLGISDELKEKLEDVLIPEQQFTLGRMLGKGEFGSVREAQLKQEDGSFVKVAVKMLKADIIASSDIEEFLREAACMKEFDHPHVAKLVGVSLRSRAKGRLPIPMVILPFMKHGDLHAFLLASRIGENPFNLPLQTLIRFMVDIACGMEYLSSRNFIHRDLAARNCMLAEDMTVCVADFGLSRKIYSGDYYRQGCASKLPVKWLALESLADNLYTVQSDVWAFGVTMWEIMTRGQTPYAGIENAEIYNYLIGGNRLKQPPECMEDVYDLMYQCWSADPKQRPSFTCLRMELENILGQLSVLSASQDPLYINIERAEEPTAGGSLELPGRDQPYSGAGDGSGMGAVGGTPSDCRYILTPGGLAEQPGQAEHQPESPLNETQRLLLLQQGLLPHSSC", "test": "Selectivity interaction (Kinase screening (Nanosyn)) EUB0000604a TYRO3"}, "[12]": {"target": "Mitogen-activated protein kinase 6 (Homo sapiens) (UniProt Q16659)", "test": "Selectivity interaction (KinomeScan (DiscoverX)) EUB0000695a MAPK6", "conditions": "at 100 nM"}}}
{"smiles": "Cc1cc(C)cc([C@@H]2c3cc(C)ccc3NC(=O)CN2C(=O)c2ccc(Br)s2)c1", "values": [{"measurement": "% of activity", "setting": "[1]; at 1 µM", "value": 102, "unit": "%"}, {"measurement": "% of activity", "setting": "[1]; at 10 µM", "value": 92.7, "unit": "%"}]}
{"smiles": "CCc1cc(Nc2nccc(-c3c(-c4ccc(OC)c(C(=O)Nc5c(F)cccc5F)c4)nc4ccccn34)n2)c(OC)cc1N1CCC(N2CCN(S(C)(=O)=O)CC2)CC1", "values": [{"measurement": "IC50", "setting": "Aurora kinase A", "value": "> 1.5", "unit": "µM"}]}
{"smiles": "CN(C)C/C=C/C(=O)Nc1ccc(C(=O)N2CCCC(Nc3ncc(Cl)c(-c4c[nH]c5ccccc45)n3)C2)cc1", "note": "(stereo unspecified)", "values": [{"measurement": "% of control", "setting": "[2]", "value": 86, "unit": "%"}]}
{"smiles": "Nc1cnc(N2CCc3cc(S(=O)(=O)Nc4c(F)cc(Cl)cc4F)cc(N4CCCC4=O)c32)nc1", "note": "[TP-020n]", "values": [{"measurement": "% of control", "setting": "[3]", "value": 100, "unit": "%"}]}
{"smiles": "CNC(=O)Nc1ccc(-c2nc(N3CC4CCC(C3)O4)c3cnn(C4CCC5(CC4)OCCO5)c3n2)cc1", "values": [{"measurement": "% of inhibition", "setting": "[4]", "value": -3, "unit": "%"}]}
{"smiles": "N#Cc1cccc(-c2c[nH]c3ncnc(N4CCOCC4)c23)c1", "values": [{"measurement": "% of inhibition", "setting": "[5]", "value": 2, "unit": "%"}, {"measurement": "% of inhibition", "setting": "[6]", "value": 2, "unit": "%"}]}
{"smiles": "C=CC(=O)Nc1cc(-n2c(=O)ccc3cnc4ccc(-c5ccc(NS(C)(=O)=O)cc5)cc4c32)ccc1C", "values": [{"measurement": "% of control", "setting": "[7]; at 1 µM", "value": 100, "unit": "%"}, {"measurement": "% of control", "setting": "[7]; at 10 µM", "value": 92, "unit": "%"}, {"measurement": "% of control", "setting": "[8]; at 1 µM", "value": 92, "unit": "%"}, {"measurement": "% of control", "setting": "[8]; at 10 µM", "value": 100, "unit": "%"}]}
{"smiles": "CC[C@@H]1[C@H](F)C(=O)N[C@@H]1COc1nccc2cc(C(N)=O)c(OC)cc12", "note": "[ZIMLOVISERTIB]", "values": [{"measurement": "% of inhibition", "setting": "[9]", "value": 14.2, "unit": "%"}, {"measurement": "% of inhibition", "setting": "[10]; at 0.01 µM", "value": 2.4, "unit": "%"}, {"measurement": "% of inhibition", "setting": "[10]; at 0.04 µM", "value": -6.6, "unit": "%"}, {"measurement": "% of inhibition", "setting": "[10]; at 0.2 µM", "value": -8.6, "unit": "%"}, {"measurement": "% of inhibition", "setting": "[10]; at 1 µM", "value": -32.8, "unit": "%"}, {"measurement": "% of inhibition", "setting": "[10]; at 5 µM", "value": -57.9, "unit": "%"}, {"measurement": "% of inhibition", "setting": "Aurora kinase B", "value": -1, "unit": "%"}]}
{"smiles": "Cc1cnc(Nc2ccc(F)cc2Cl)nc1-c1c[nH]c(C(=O)N[C@H](CO)c2cccc(Cl)c2)c1", "values": [{"measurement": "% of inhibition", "setting": "[11]", "value": 0, "unit": "%"}]}
{"smiles": "Cc1cc(F)c(C(=O)Nc2cccc(-c3nncn3C(C)C)n2)cc1-n1cnc(C2CC2)c1", "values": [{"measurement": "% of control", "setting": "[12]", "value": 81, "unit": "%"}]}
